In US12577217B2, “15-PGDH inhibitor” (KYORIN Pharmaceutical Co., Ltd., priority 2019, dated 2026):
pIC50: −log10 of the molar value.

Biological target: T1, recombinant human 15-PGDH (Homo sapiens, UniProt P15428)
T1 construct: purchased R&D Systems
T1 sequence (P15428 1-266): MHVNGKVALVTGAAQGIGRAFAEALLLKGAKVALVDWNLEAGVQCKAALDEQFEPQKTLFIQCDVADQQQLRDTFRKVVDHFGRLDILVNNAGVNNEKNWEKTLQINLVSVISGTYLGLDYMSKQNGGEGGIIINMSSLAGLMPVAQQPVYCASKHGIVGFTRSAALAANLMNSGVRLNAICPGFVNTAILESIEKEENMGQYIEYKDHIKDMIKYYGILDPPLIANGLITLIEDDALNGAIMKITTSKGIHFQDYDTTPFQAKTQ
Assay: 15-PGDH enzyme inhibition test
Format: biochemical
Settings: 4 nM recombinant human 15-PGDH, 30 μM PGE2, 1 mM NAD+, 60 minutes after starting the reaction; read-out: IC50 Value
Procedure, shortened: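 Fluorescence (excitation 340 nm, emission 440 nm) measured 60 min after adding 1 mM NAD+ and 30 μM PGE2 to 4 nM recombinant human 15-PGDH, which had stood 12 min at room temperature with compound in pH 8.0 Tris-HCl buffer. Concentration-response curves yield IC50, binned into potency categories.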

| SMILES | pIC50 |
| --- | --- |
| Cn1cnc2cc(N3CCOc4cc(C(=O)N5CCC(F)(F)CC5)cnc43)ccc2c1=O [Example 1-226] | > 8.00 |
| O=C(c1cnc2c(c1)OCCN2c1ccc2c(c1)CN(C1CC1)C2=O)N1CCC(F)(F)CC1 [Example 1-227] | > 8.00 |
| Cn1nc2cc(N3CCOc4c3ccc(C(=O)N3CCCCC3)c4Cl)ccn2c1=O [Example 1-265] | > 8.00 |
| COCCN1Cc2cc(N3CCOc4cc(C(=O)N5CCC(F)(F)CC5)cnc43)ncc2C1=O [Example 1-266] | 7.00 to 8.00 |
| Cn1ccc2cc(N3CCOc4cc(C(=O)N5CCC(F)(F)CC5)cnc43)ccc2c1=O [Example 1-267] | > 8.00 |
| COc1cc2c(cc1C(=O)N1CCCCC1)OCCN2c1ccc(C(=O)O)cc1 [Example 2-1, 4-(6-Methoxy-7-(piperidine-1-carbonyl)-2,3-dihydro-4H-benzo[b] [1,4]oxazin-4-yl)benzoic Acid] | 7.00 to 8.00 |
| COc1c(C(=O)N2CCCCC2)ccc2c1OCCN2c1ccc(C(=O)O)cc1 [Example 2-2] | > 8.00 |
| O=C(O)c1ccc(N2CCOc3cc(C(=O)N4CCCCC4)c(Cl)cc32)cc1 [Example 2-3] | > 8.00 |
| O=C(O)c1ccc(N2CCOc3c2ccc(C(=O)N2CCCCC2)c3Cl)cc1 [Example 2-4] | > 8.00 |
| O=C(O)c1ccc(N2CCCOc3cc(C(=O)N4CCCCC4)ccc32)cc1 [Example 2-5] | > 8.00 |
| O=C(O)c1ccc(N2CCCCOc3cc(C(=O)N4CCCCC4)ccc32)cc1 [Example 2-6] | > 8.00 |
| O=C(O)c1ccc(N2CCOc3cc(C(=O)N4CCCCC4)ccc32)cc1 [Example 2-7] | > 8.00 |
| C[C@H]1COc2cc(C(=O)N3CCCCC3)ccc2N(c2ccc(C(=O)O)cc2)C1 [Example 2-10] | > 8.00 |
| C[C@@H]1COc2cc(C(=O)N3CCCCC3)ccc2N(c2ccc(C(=O)O)cc2)C1 [Example 2-11] | > 8.00 |
| COc1cc(N2CCOc3cc(C(=O)N4CCCCC4)ccc32)ccc1C(=O)O [Example 2-12] | > 8.00 |
| COc1cc(N2CCOc3cc(C(=O)N4CCC(F)(F)CC4)ccc32)ccc1C(=O)O [Example 2-13] | > 8.00 |

| SMILES | pIC50 |
| --- | --- |
| COc1cc(N2CCOc3cc(C(=O)N4CC=CCC4)ccc32)ccc1C(=O)O [Example 2-14] | > 8.00 |
| O=C(O)c1ccc(N2CCSc3cc(C(=O)N4CCCCC4)ccc32)cc1 [Example 2-15] | > 8.00 |
| O=C(O)c1ccc(N2CC[S+]([O-])c3cc(C(=O)N4CCCCC4)ccc32)cc1 (stereo not shown) [Example 2-16] | 7.00 to 8.00 |
| O=C(O)c1ccc(N2CCS(=O)(=O)c3cc(C(=O)N4CCCCC4)ccc32)cc1 [Example 2-17] | 7.00 to 8.00 |
| O=C(O)c1ccc(N2CCCSc3cc(C(=O)N4CCCCC4)ccc32)cc1 [Example 2-18] | > 8.00 |
| O=C(O)c1ccc(N2CCC[S+]([O-])c3cc(C(=O)N4CCCCC4)ccc32)cc1 (stereo not shown) [Example 2-19] | < 7.00 |
| O=C(O)c1ccc(N2CCCS(=O)(=O)c3cc(C(=O)N4CCCCC4)ccc32)cc1 [Example 2-20] | < 7.00 |
| O=C(O)c1ccc(N2CCCc3cc(C(=O)N4CCCCC4)ccc32)cc1 [Example 2-26] | > 8.00 |
| O=C(O)c1ccccc1N1CCOc2cc(C(=O)N3CCCCC3)ccc21 [Example 2-27] | < 7.00 |
| O=C(O)c1ccccc1N1CCc2cc(C(=O)N3CCCCC3)ccc21 [Example 2-28] | < 7.00 |
| O=C(O)c1cccc(N2CCc3cc(C(=O)N4CCCCC4)ccc32)c1 [Example 2-29] | > 8.00 |
| O=C(O)c1ccc(N2CCc3cc(C(=O)N4CCCCC4)ccc32)cc1 [Example 2-30] | > 8.00 |
| O=C(O)c1cccc(N2CCOc3cc(C(=O)N4CCCCC4)ccc32)c1 [Example 2-31] | > 8.00 |
| O=C(O)Cc1ccc(N2CCOc3cc(C(=O)N4CCCCC4)ccc32)cc1 [Example 2-32] | > 8.00 |
| O=C(O)CCc1ccc(N2CCOc3cc(C(=O)N4CCCCC4)ccc32)cc1 [Example 2-33] | > 8.00 |
| O=C(O)c1ccc(N2CCCc3cc(C(=O)N4CCCCC4)cnc32)cc1 [Example 2-34] | > 8.00 |

More lines, now with the values ahead:

| pIC50 | SMILES |
| --- | --- |
| > 8.00 | Cn1ncc2cc(N3CCOc4cc(C(=O)N5CCCCC5)cnc43)ccc2c1=O [Example 1-218] |
| > 8.00 | O=C(c1cnc2c(c1)OCCN2c1ccc2c(=O)[nH]ccc2c1)N1CCCCC1 [Example 1-219] |
| > 8.00 | CCCN1Cc2cc(N3CCOc4cc(C(=O)N5CCCCC5)cnc43)ccc2C1=O [Example 1-222] |
| > 8.00 | CCCCN1Cc2cc(N3CCOc4cc(C(=O)N5CCCCC5)cnc43)ccc2C1=O [Example 1-223] |
| > 8.00 | O=C(c1cnc2c(c1)OCCN2c1ccc2c(c1)CN(C1CC1)C2=O)N1CCCCC1 [Example 1-224] |
| 7.00 to 8.00 | CN1Cc2ccc(N3CCOc4cc(C(=O)N5CCCCC5)cnc43)cc2C1=O [Example 1-225] |
| < 7.00 | CN1CCN(c2ccccc2)c2ncc(C(=O)N3CCCCC3)cc21 [Example 1-228] |
| 7.00 to 8.00 | COc1cc(N2CCOc3cc(C(=O)N4CCCCC4)cnc32)cc2nn(C)c(=O)n12 [Example 1-230] |
| 7.00 to 8.00 | O=C(c1cnc2c(c1)OCCN2c1ccccc1)N1CCCCC1 [Example 1-232] |
| 7.00 to 8.00 | O=C(c1cnc2c(c1)OCCN2c1ccncc1)N1CCCCC1 [Example 1-233] |
| 7.00 to 8.00 | O=C(c1cnc2c(c1)OCCN2c1cccnc1)N1CCCCC1 [Example 1-234] |
| < 7.00 | O=C(c1cnc2c(c1)OCCN2c1ccccn1)N1CCCCC1 [Example 1-235] |
| < 7.00 | O=C(c1cnc2c(c1)OCCN2c1ccc(F)cc1)N1CCCCC1 [Example 1-236] |
| > 8.00 | O=C(c1cnc2c(c1)OCCN2c1cccc(F)c1)N1CCCCC1 [Example 1-237] |
| < 7.00 | O=C(c1cnc2c(c1)OCCN2c1ccccc1F)N1CCCCC1 [Example 1-238] |
| 7.00 to 8.00 | O=C(c1cnc2c(c1)OCCN2c1ccc(F)c(F)c1)N1CCCCC1 [Example 1-239] |
| 7.00 to 8.00 | CS(=O)(=O)c1ccc(N2CCOc3cc(C(=O)N4CCCCC4)cnc32)cc1 [Example 1-240] |
| > 8.00 | N#Cc1ccc(N2CCOc3cc(C(=O)N4CCCCC4)cnc32)cc1 [Example 1-241] |
| 7.00 to 8.00 | O=C(c1cnc2c(c1)OCCN2c1ccc(C(F)(F)F)cc1)N1CCCCC1 [Example 1-242] |
| 7.00 to 8.00 | O=C(c1cnc2c(c1)OCCN2c1ccc(Br)cc1)N1CCCCC1 [Example 1-243] |
| 7.00 to 8.00 | CCc1ccc(N2CCOc3cc(C(=O)N4CCCCC4)cnc32)cc1 [Example 1-244] |
| 7.00 to 8.00 | COc1ccc(N2CCOc3cc(C(=O)N4CCCCC4)cnc32)cc1 [Example 1-245] |
| < 7.00 | CC(C)(N)c1ccc(N2CCOc3cc(C(=O)N4CCCCC4)cnc32)cc1 [Example 1-246] |
| < 7.00 | COC(=O)C(C)(C)c1ccc(N2CCOc3cc(C(=O)N4CCCCC4)cnc32)cc1 [Example 1-247] |

| pIC50 | SMILES |
| --- | --- |
| < 7.00 | CN1C(=O)C(C)(C)c2ccc(N3CCOc4cc(C(=O)N5CCCCC5)cnc43)cc21 [Example 1-248] |
| < 7.00 | CN1C(=O)C(C)(C)c2cc(N3CCOc4cc(C(=O)N5CCCCC5)cnc43)ccc21 [Example 1-249] |
| > 8.00 | Cn1nnnc1-c1ccc(N2CCOc3cc(C(=O)N4CCCCC4)cnc32)cc1 [Example 1-251] |
| > 8.00 | Cn1nnc(-c2ccc(N3CCOc4cc(C(=O)N5CCCCC5)cnc43)cc2)n1 [Example 1-252] |
| 7.00 to 8.00 | O=C(c1cnc2c(c1)OCCN2c1cccc(Cl)c1)N1CCCCC1 [Example 1-253] |
| 7.00 to 8.00 | CS(=O)(=O)c1ccc(N2CCOc3cc(C(=O)N4CCCCC4)cnc32)cc1Cl [Example 1-254] |
| 7.00 to 8.00 | COc1cc(N2CCOc3cc(C(=O)N4CCCCC4)cnc32)ccc1S(C)(=O)=O [Example 1-255] |
| > 8.00 | O=C(c1cnc2c(c1)OCCN2c1ccc2cccnc2c1)N1CCCCC1 [Example 1-257] |
| > 8.00 | O=C(c1cnc2c(c1)OCCN2c1ccc2nccnc2c1)N1CCCCC1 [Example 1-258] |
| > 8.00 | O=C(c1cnc2c(c1)OCCN2c1ccc2cnccc2c1)N1CCCCC1 [Example 1-259] |
| > 8.00 | O=C(c1cnc2c(c1)OCCN2c1ccc2ccncc2c1)N1CCCCC1 [Example 1-260] |
| > 8.00 | COC(=O)c1ccc(N2CCOc3cc(C(=O)N4CCCCC4)cnc32)cc1 [Example 1-261] |
| > 8.00 | COC(=O)c1cccc(N2CCOc3cc(C(=O)N4CCCCC4)cnc32)c1 [Example 1-262] |
| < 7.00 | COC(=O)c1ccccc1N1CCOc2cc(C(=O)N3CCCCC3)cnc21 [Example 1-263] |
| > 8.00 | CCOC(=O)c1ccc(N2CCOc3cc(C(=O)N4CCCCC4)cnc32)s1 [Example 1-264] |
| > 8.00 | CCOCn1nc2cc(N3CCOc4cc(C(=O)N5CCCCC5)cnc43)ccn2c1=O [Example 1-268] |
| > 8.00 | CCOCCn1nc2cc(N3CCOc4cc(C(=O)N5CCCCC5)cnc43)ccn2c1=O [Example 1-269] |
| < 7.00 | Cn1nc2cc(N3CCOc4cc(C(=O)N5CCCCC5)cnc43)c(Cl)cn2c1=O [Example 1-270] |
| > 8.00 | O=C(O)c1ccc(N2CCCOc3cc(C(=O)N4CCCCC4)cnc32)cc1 [Example 2-8] |
| > 8.00 | O=C(O)c1ccc(N2CCCCOc3cc(C(=O)N4CCCCC4)cnc32)cc1 [Example 2-9] |
| > 8.00 | O=C(O)c1ccc(N2CCOc3cc(C(=O)N4CCCCC4)ccc32)nc1 [Example 2-21] |
| > 8.00 | O=C(O)c1ccc(N2CCOc3cc(C(=O)N4CCCCC4)ccc32)cn1 [Example 2-22] |
| > 8.00 | O=C(O)Cn1nc2cc(N3CCOc4cc(C(=O)N5CCCCC5)cnc43)ccn2c1=O [Example 2-23] |
